Converted amounts (≈) assume the structure as drawn. Read-outs that look alike come from different tables or passages of the source.
Key:
[1] = tested on: chronic heart failure mice; experiment: Pharmacodynamic comparison of LCZ696 and compound 2 in chronic heart failure mice (echocardiography); format: in vivo
From the text: With EF<50%, chronic heart failure mice were selected.
The mice were detected by cardiac ultrasound after 28 days of administration.

[2] = Solubility test in water and FaSSIF; format: physicochemical; conditions: 37° C., up to 24 hours
[3] = 100 mg/kg, after 28 days of administration
[4] = Positive control 1 (LCZ696, probably 60 mg/kg), Day 0
[5] = Positive control 1 (LCZ696, probably 60 mg/kg), Day 28
[6] = Positive control 2 (LCZ696, probably 100 mg/kg), Day 0
[7] = Positive control 2 (LCZ696, probably 100 mg/kg), Day 28
[8] = chronic heart failure mice (FIG. 9)
[9] = thermodynamic from solid, FaSSIF (pH 6.5), read-out: Solubility
[10] = thermodynamic from solid, Water, read-out: Solubility

Molecule: sacubitril valsartan sodium [LCZ696]
- left ventricular ejection fraction EF % increased by ([1]; 60 mg/kg, after 28 days of administration): 33.14%
- FS % [1, 3]: significantly increased
- left ventricular ejection fraction EF % increased by [1, 3]: 45.36%
- CO [1, 4]: 30.83 ± 2.77 mL/min
- EF [1, 4]: 23.49 ± 3.96%
- FS [1, 4]: 9.31 ± 1.8%
- HR [1, 4]: 575.58 ± 11.44 times/min
- CO [1, 5]: 30.17 ± 1.85 mL/min
- EF [1, 5]: 31.27 ± 5.36%
- FS [1, 5]: 12.93 ± 2.66%
- HR [1, 5]: 531.4 ± 19.6 times/min
- CO [1, 6]: 35.4 ± 3.19 mL/min
- EF [1, 6]: 22.89 ± 2.06%
- FS [1, 6]: 9.24 ± 0.86 %
- HR [1, 6]: 553.5 ± 10.76 times/min
- CO [1, 7]: 39.02 ± 4.26 mL/min
- EF [1, 7]: 34.72 ± 5.06%
- FS [1, 7]: 14.76 ± 2.86%
- HR [1, 7]: 550.17 ± 12.72 times/min
- Cardiac output per minute (CO), day 28 vs day 0 (words) [1, 8]: not statistically significant
- Heart rate (HR), day 28 vs day 0 [1, 8]: no significant change
- EF, day 28 vs day 0 (words) ([1]; chronic heart failure mice, p<0.0005 (FIG. 8)): significantly increased

Molecule: CC(C)(O)[C@@H]1CC[C@@](C)([C@H]2[C@@H](O)C[C@@]3(C)[C@@H]4C[C@H](OC(=O)COCCO)[C@H]5C(C)(C)C(F)(F)CC[C@@]56C[C@@]46CC[C@]23C)O1 [Compound 2-11, (2aR,3R,4S,5aS,5bS,7S,7aR,11aR,12aS)-9,9-difluoro-4-hydroxy-3-((2S,5S)-5-(2-hydroxypropan-2-yl)-2-methyltetrahydrofuran-2-yl)-2a,5a,8,8-tetramethyltetradecahydro-1H,12H-cyclopenta[a]cyclopropa[e]phenanthren-7-yl-2-(2-hydroxyethoxy)acetate]
- Solubility [2, 9]: 1050 µg/mL (≈ 1710 µM)
- Solubility [2, 10]: 550 µg/mL (≈ 898 µM)

Molecule: CC(C)(O)C1CCC(C)(C2C(O)CC3(C)C4CC(OP(=O)(O)O)C5C(C)(C)C(F)(F)CCC56CC46CCC23C)O1.N [Compound 3-2, Ammonium (2aR,3R,4S,5aS,5bS,7S,7aR,11aR,12aS)-9,9-difluoro-4-hydroxy-3-((2S,5S)-5-(2-hydroxypropan-2-yl)-2-methyltetrahydrofuran-2-yl)-2a,5a,8,8-tetramethyltetradecahydro-1H,12H-cyclopenta[a]cyclopropa[e]phenanthren-7-yl phosphate]
- Solubility ([2]; FaSSIF (pH 6.5)): 22300 µg/mL
- Solubility ([2]; Water): 12600 µg/mL

Molecule: CC(C)(O)[C@@H]1CC[C@@](C)([C@H]2[C@@H](O)C[C@@]3(C)[C@@H]4C[C@H](OP(=O)(O)O)[C@H]5C(C)(C)C(F)(F)CC[C@@]56C[C@@]46CC[C@]23C)O1 [Compound 11, (2aR,3R,4S,5aS,5bS,7S,7aR,11aR,12aS)-9,9-difluoro-4-hydroxy-3-((2S,5S)-5-(2-hydroxypropan-2-yl)-2-methyltetrahydrofuran-2-yl)-2a,5a,8,8-tetramethyltetradecahydro-1H,12H-cyclopenta[a]cyclopropa[e]phenanthren-7-yl dihydrogen phosphate]
- Solubility [2, 9]: 3200 µg/mL
- Solubility [2, 10]: 790 µg/mL

Molecule: CC(C)(O)[C@@H]1CC[C@@](C)([C@H]2[C@@H](O)C[C@@]3(C)[C@@H]4C[C@H](OC(=O)[C@@H](N)CCCCN)[C@H]5C(C)(C)C(F)(F)CC[C@@]56C[C@@]46CC[C@]23C)O1.Cl.Cl [Compound 2-26, (S)-6-(((2aR,3R,4S,5aS,5bS,7S,7aR,11aR,12aS)-9,9-difluoro-4-hydroxy-3-((2S,5S)-5-(2-hydroxypropan-2-yl)-2-methyltetrahydrofuran-2-yl)-2a,5a,8,8-tetramethyltetradecahydro-1H,12H-cyclopenta[a]cyclopropa[e]phenanthren-7-yl)oxy)-6-oxohexane-1,5-diaminium Chloride]
- Solubility ([2]; FaSSIF (pH 6.5)): 6600 µg/mL
- Solubility ([2]; Water): 2100 µg/mL

Molecule: CC(C)(O)[C@@H]1CC[C@@](C)([C@H]2[C@@H](O)C[C@@]3(C)[C@@H]4C[C@H](OC(=O)[C@@H](N)CCCNC(=N)N)[C@H]5C(C)(C)C(F)(F)CC[C@@]56C[C@@]46CC[C@]23C)O1.Cl.Cl [Compound 2-23, 1-((S)-4-ammonio-5-(((2aR,3R,4S,5aS,5bS,7S,7aR,11aR,12aS)-9,9-difluoro-4-hydroxy-3-((2S,5S)-5-(2-hydroxypropan-2-yl)-2-methyltetrahydrofuran-2-yl)-2a,5a,8,8-tetramethyltetradecahydro-1H,12H-cyclopenta[a]cyclopropa[e]phenanthren-7-yl)oxy)-5-oxopentyl)guanidinium Chloride]
- Solubility ([2]; FaSSIF (pH 6.5)): 6600 µg/mL
- Solubility ([2]; Water): 2300 µg/mL

Molecule: CC(C)C[C@H](N)C(=O)O[C@H]1C[C@@H]2[C@]3(CC[C@]4(C)[C@@H]([C@]5(C)CC[C@@H](C(C)(C)O)O5)[C@@H](O)C[C@@]24C)C[C@@]32CCC(F)(F)C(C)(C)[C@H]12.Cl [Compound 2-18, (S)-1-(((2aR,3R,4S,5aS,5bS,7S,7aR,11aR,12aS)-9,9-difluoro-4-hydroxy-3-((2S,5S)-5-(2-hydroxypropan-2-yl)-2-methyltetrahydrofuran-2-yl)-2a,5a,8,8-tetramethyltetradecahydro-1H,12H-cyclopenta[a]cyclopropa[e]phenanthren-7-yl)oxy)-4-methyl-1-oxopentan-2-aminium Chloride]
- Solubility ([2]; FaSSIF (pH 6.5)): 1850 µg/mL
- Solubility ([2]; Water): 600 µg/mL

Molecule: Br.CC(C)(O)[C@@H]1CC[C@@](C)([C@H]2[C@@H](O)C[C@@]3(C)[C@@H]4C[C@H](OC(=O)[C@@H](N)CC(N)=O)[C@H]5C(C)(C)C(F)(F)CC[C@@]56C[C@@]46CC[C@]23C)O1 [Compound 2-21, (S)-4-amino-1-(((2aR,3R,4S,5aS,5bS,7S,7aR,11aR,12aS)-9,9-difluoro-4-hydroxy-3-((2S,5S)-5-(2-hydroxypropan-2-yl)-2-methyltetrahydrofuran-2-yl)-2a,5a,8,8-tetramethyltetradecahydro-1H,12H-cyclopenta[a]cyclopropa[e]phenanthren-7-yl)oxy)-1,4-dioxobutan-2-aminium Bromide]
- Solubility ([2]; FaSSIF (pH 6.5)): 3500 µg/mL
- Solubility ([2]; Water): 900 µg/mL

Molecule: CC(C)(O)C1CCC(C)(C2C(O)CC3(C)C4CC(OC(=O)CNCCNCCN)C5C(C)(C)C(F)(F)CCC56CC46CCC23C)O1.O=[N+]([O-])O [Compound 2-9, 2-((2-((2-(((2aR,3R,4S,5aS,5bS,7S,7aR,11aR,12aS)-9,9-difluoro-4-hydroxy-3-((2S,5S)-5-(2-hydroxypropan-2-yl)-2-methyltetrahydrofuran-2-yl)-2a,5a,8,8-tetramethyltetradecahydro-1H,12H-cyclopenta[a]cyclopropa[e]phenanthren-7-yl)oxy)-2-oxoethyl)amino)ethyl)amino)ethan-1-aminium Nitrate]
- Solubility ([2]; FaSSIF (pH 6.5)): 4520 µg/mL
- Solubility ([2]; Water): 2110 µg/mL

Molecule: CC(C)(O)[C@@H]1CC[C@@](C)([C@H]2[C@@H](O)C[C@@]3(C)[C@@H]4C[C@H](OC(=O)COCCOCCO)[C@H]5C(C)(C)C(F)(F)CC[C@@]56C[C@@]46CC[C@]23C)O1 [Compound 2-12, (2aR,3R,4S,5aS,5bS,7S,7aR,11aR,12aS)-9,9-difluoro-4-hydroxy-3-((2S,5S)-5-(2-hydroxypropan-2-yl)-2-methyltetrahydrofuran-2-yl)-2a,5a,8,8-tetramethyltetradecahydro-1H,12H-cyclopenta[a]cyclopropa[e]phenanthren-7-yl-2-(2-(2-hydroxyethoxy)ethoxy) Acetate]
- Solubility [2, 9]: 1110 µg/mL
- Solubility [2, 10]: 680 µg/mL

Molecule: Br.CN(CC(=O)O[C@H]1C[C@@H]2[C@]3(CC[C@]4(C)[C@@H]([C@]5(C)CC[C@@H](C(C)(C)O)O5)[C@@H](O)C[C@@]24C)C[C@@]32CCC(F)(F)C(C)(C)[C@H]12)C(=O)[C@H](N)CC(=O)O [Compound 2-33, (R)-3-carboxy-1-((2-(((2aR,3R,4S,5aS,5bS,7S,7aR,11aR,12aS)-9,9-difluoro-4-hydroxy-3-((2S,5S)-5-(2-hydroxypropan-2-yl)-2-methyltetrahydrofuran-2-yl)-2a,5a,8,8-tetramethyltetradecahydro-1H,12H-cyclopenta[a]cyclopropa[e]phenanthren-7-yl)oxy)-2-oxoethyl)(methyl)amino)-1-oxopropan-2-aminium bromide]
- Solubility ([2]; FaSSIF (pH 6.5)): 6800 µg/mL
- Solubility ([2]; Water): 2100 µg/mL

Molecule: Br.CC(C)(O)C1CCC(C)(C2C(O)CC3(C)C4CC(OC(=O)COCCOCCOCCOCCOCCN)C5C(C)(C)C(F)(F)CCC56CC46CCC23C)O1 [Compound 2-10, 17-(((2aR,3R,4S,5aS,5bS,7S,7aR,11aR,12aS)-9,9-difluoro-4-hydroxy-3-((2S,5S)-5-(2-hydroxypropan-2-yl)-2-methyltetrahydrofuran-2-yl)-2a,5a,8,8-tetramethyltetradecahydro-1H,12H-cyclopenta[a]cyclopropa[e]phenanthren-7-yl)oxy)-17-oxo-3,6,9,12,15-pentaoxaheptadecan-1-aminium Bromide]
- Solubility ([2]; FaSSIF (pH 6.5)): 4390 µg/mL
- Solubility ([2]; Water): 2280 µg/mL

Molecule: CC(C)(O)[C@@H]1CC[C@@](C)([C@H]2[C@@H](O)C[C@@]3(C)[C@@H]4C[C@H](OC(=O)COCCOCCOCCO)[C@H]5C(C)(C)C(F)(F)CC[C@@]56C[C@@]46CC[C@]23C)O1 [Compound 2-13, (2aR,3R,4S,5aS,5bS,7S,7aR,11aR,12aS)-9,9-difluoro-4-hydroxy-3-((2S,5S)-5-(2-hydroxypropan-2-yl)-2-methyltetrahydrofuran-2-yl)-2a,5a,8,8-tetramethyltetradecahydro-1H,12H-cyclopenta[a]cyclopropa[e]phenanthren-7-yl-2-(2-(2-(2-hydroxyethoxy)ethoxy)ethoxy)acetate]
- Solubility [2, 9]: 1150 µg/mL (≈ 1640 µM)
- Solubility [2, 10]: 850 µg/mL (≈ 1210 µM)

From patent publication US20220177511A1, “SERIES OF HALOGENATED TETRACYCLIC TRITERPENE DERIVATIVES AND THEIR PREPARATION AND APPLICATION” (SHANGHAI KING-X BIOTECH CO., LTD, priority 2019, published 2022)
